Measurements taken from ChEMBL document CHEMBL1201862, “PubChem BioAssay data set” (2004).
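How tested: cells in 96-well plates exposed to compound for 48 hours at five concentrations. GI50 = concentration required for 50% inhibition of growth.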 Activity calls are given as the source filed them. No stated cut-off is given here; in the data, active = GI50 up to about 1.1 µM and inactive = higher.

Legend:
Assay in all cases: NCI-60 cell line screen, 48 h
UO-31 = system: UO-31
NCI-H460 = system: NCI-H460
SF-539 = system: SF-539
HCC 2998 = system: HCC 2998
KM12 = system: KM12
ACHN = system: ACHN
SF-295 = system: SF-295
BT-549 = system: BT-549
MCF7 = system: MCF7
SK-OV-3 = system: SK-OV-3
RPMI-8226 = system: RPMI-8226
SK-MEL-28 = system: SK-MEL-28
786-0 = system: 786-0
COLO 205 = system: COLO 205
SR = system: SR
SF-268 = system: SF-268
OVCAR-8 = system: OVCAR-8
SNB-19 = system: SNB-19
NCI/ADR-RES = system: NCI/ADR-RES
TK-10 = system: TK-10

SMILES	GI50 (UO-31)	GI50 (NCI-H460)	GI50 (SF-539)	GI50 (HCC 2998)	GI50 (KM12)	GI50 (ACHN)	GI50 (SF-295)	GI50 (BT-549)	GI50 (MCF7)	GI50 (SK-OV-3)	GI50 (RPMI-8226)	GI50 (SK-MEL-28)	GI50 (786-0)	GI50 (COLO 205)	GI50 (SR)	GI50 (SF-268)	GI50 (OVCAR-8)	GI50 (SNB-19)	GI50 (NCI/ADR-RES)	GI50 (TK-10)
COc1cccc(-c2cc(O)c3cc(Cl)cnc3n2)c1	0.313 µM (active)	0.0783 µM (active)	0.0348 µM (active)	0.164 µM (active)	0.0887 µM (active)	0.127 µM (active)	0.0687 µM (active)	2.17 µM (inactive)	0.484 µM (active)	0.152 µM (active)	0.0378 µM (active)	0.0918 µM (active)	0.102 µM (active)	0.113 µM (active)	0.0292 µM (active)	0.165 µM (active)	0.158 µM (active)	0.122 µM (active)	0.0341 µM (active)	12.9 µM (inactive)
O=C1CSC(c2ccccc2)N1c1nc2cc3sc(N4C(=O)CSC4c4ccccc4)nc3cc2s1 (stereo not drawn)	40.6 µM (inactive)	3.1 µM (inactive)	3.03 µM (inactive)	> 93.3 µM (inactive)	17.5 µM (inactive)	35.6 µM (inactive)	> 100 µM (inactive)	37.6 µM (inactive)	12.9 µM (inactive)	> 100 µM (inactive)	71.1 µM (inactive)	> 100 µM (inactive)	> 100 µM (inactive)	2.85 µM (inactive)	16.5 µM (inactive)	> 87.3 µM (inactive)	70.8 µM (inactive)	78.3 µM (inactive)	25.2 µM (inactive)	53.2 µM (inactive)
CCCCc1ccc(Nc2nc(S)c3ncn(COCCO)c3n2)cc1	> 100 µM (inactive)	41.5 µM (inactive)	> 100 µM (inactive)	36.8 µM (inactive)	38 µM (inactive)	43.1 µM (inactive)	64.7 µM (inactive)	56.9 µM (inactive)	24.2 µM (inactive)	> 100 µM (inactive)	21.3 µM (inactive)		> 100 µM (inactive)	20.6 µM (inactive)	24 µM (inactive)	> 10 µM (inactive)	45.4 µM (inactive)	31.2 µM (inactive)	> 100 µM (inactive)	66.2 µM (inactive)
COc1ccc(/C=C/C2=NN(c3cccc(S(=O)(=O)O)c3)C3(C2)SCC(=O)N3c2nc3ccccc3s2)cc1 (stereo not drawn)	51.1 µM (inactive)	50.7 µM (inactive)	33.2 µM (inactive)	> 100 µM (inactive)	> 100 µM (inactive)	69 µM (inactive)		56.1 µM (inactive)	46.8 µM (inactive)		22.8 µM (inactive)	> 100 µM (inactive)	76.7 µM (inactive)	> 100 µM (inactive)	19.5 µM (inactive)	98.6 µM (inactive)	60.7 µM (inactive)	97.1 µM (inactive)	59 µM (inactive)	86.3 µM (inactive)
O=C(/C=C(\Nc1ccccc1O)c1ccc(Br)cc1)C(Cl)(Cl)Cl	2.68 µM (inactive)	3.21 µM (inactive)	12.7 µM (inactive)	2.1 µM (inactive)	2.75 µM (inactive)	2.55 µM (inactive)	6.12 µM (inactive)	15 µM (inactive)	5.21 µM (inactive)	1.07 µM (active)	1.79 µM (inactive)	11 µM (inactive)	14.4 µM (inactive)	6.95 µM (inactive)	13.7 µM (inactive)	11.7 µM (inactive)	12.6 µM (inactive)	6.87 µM (inactive)	11.4 µM (inactive)	6.95 µM (inactive)
COc1cc(C2c3cc4c(cc3OC(N3CCCC3)C2C)OCO4)cc(OC)c1O (stereo not drawn)	44.3 µM (inactive)	16.3 µM (inactive)	14.9 µM (inactive)	28.2 µM (inactive)	6.59 µM (inactive)	28.6 µM (inactive)	3.71 µM (inactive)	13.3 µM (inactive)	9.93 µM (inactive)	11.5 µM (inactive)	45.6 µM (inactive)	> 43.9 µM (inactive)	13.9 µM (inactive)	23.1 µM (inactive)	5.89 µM (inactive)	22.9 µM (inactive)	24 µM (inactive)	13.2 µM (inactive)	5.93 µM (inactive)	19.4 µM (inactive)
COc1ccc(Cc2cc(Cc3ccc(OC)cc3)cc(Cc3ccc(OC)cc3)c2)cc1	> 100 µM (inactive)	> 100 µM (inactive)	> 100 µM (inactive)	> 100 µM (inactive)	> 100 µM (inactive)	> 100 µM (inactive)	> 100 µM (inactive)	> 100 µM (inactive)	> 100 µM (inactive)	> 100 µM (inactive)	> 100 µM (inactive)	> 100 µM (inactive)	> 100 µM (inactive)		89.5 µM (inactive)	> 100 µM (inactive)	> 100 µM (inactive)	> 100 µM (inactive)	> 100 µM (inactive)	> 100 µM (inactive)
COc1cc(C(c2cc(OC)c(OC)c(OC)c2)N2C(=O)CCC2C(=O)O)cc(OC)c1OC (stereo not drawn)	> 100 µM (inactive)	> 100 µM (inactive)	> 100 µM (inactive)		> 100 µM (inactive)	> 100 µM (inactive)	> 100 µM (inactive)	> 100 µM (inactive)	> 100 µM (inactive)	> 100 µM (inactive)	> 100 µM (inactive)	> 100 µM (inactive)	> 100 µM (inactive)	> 100 µM (inactive)	> 100 µM (inactive)	> 100 µM (inactive)	> 100 µM (inactive)	> 100 µM (inactive)	> 100 µM (inactive)	
O=C(O)C1CSC2(CCCN(Cc3ccccc3)C2)N1 (stereo not drawn)	> 100 µM (inactive)	> 100 µM (inactive)	> 100 µM (inactive)	> 100 µM (inactive)	> 100 µM (inactive)	> 100 µM (inactive)	> 100 µM (inactive)	> 100 µM (inactive)	> 100 µM (inactive)	> 100 µM (inactive)		> 100 µM (inactive)	> 100 µM (inactive)	> 100 µM (inactive)	4.81 µM (inactive)	> 100 µM (inactive)	> 100 µM (inactive)	> 100 µM (inactive)	> 100 µM (inactive)	> 100 µM (inactive)
Cc1cc2nn(C3CCCCO3)nc2cc1C (stereo not drawn)	75.7 µM (inactive)	> 100 µM (inactive)	> 100 µM (inactive)	> 100 µM (inactive)	> 100 µM (inactive)	> 100 µM (inactive)	> 100 µM (inactive)	> 100 µM (inactive)	> 100 µM (inactive)	> 100 µM (inactive)			> 100 µM (inactive)	> 100 µM (inactive)	> 100 µM (inactive)	> 100 µM (inactive)	> 100 µM (inactive)	> 100 µM (inactive)	> 100 µM (inactive)	> 100 µM (inactive)
CC(C#N)(c1ccccc1)N(CCc1ccccc1)C(=O)Oc1ccccc1 (stereo not drawn)	> 100 µM (inactive)		> 100 µM (inactive)	> 100 µM (inactive)	> 100 µM (inactive)	> 100 µM (inactive)	> 100 µM (inactive)	> 100 µM (inactive)	> 100 µM (inactive)	> 100 µM (inactive)	> 100 µM (inactive)	> 100 µM (inactive)	40.6 µM (inactive)	> 100 µM (inactive)	> 100 µM (inactive)	> 100 µM (inactive)	> 100 µM (inactive)	44.2 µM (inactive)	> 100 µM (inactive)	> 100 µM (inactive)
O=C1NI(C#Cc2ccccc2)c2ccccc21	> 100 µM (inactive)	> 100 µM (inactive)	> 100 µM (inactive)		95.1 µM (inactive)		> 100 µM (inactive)	> 100 µM (inactive)	22.2 µM (inactive)	1.32 µM (inactive)	43.7 µM (inactive)	> 100 µM (inactive)	> 100 µM (inactive)	29.7 µM (inactive)	> 100 µM (inactive)	> 100 µM (inactive)	> 100 µM (inactive)	> 100 µM (inactive)	> 100 µM (inactive)	> 100 µM (inactive)
Cc1cc2c(c3oc(C4(C)OC4C4OC4C)cc(=O)c13)C(=O)c1c(O)c(C3CC(C)(N(C)C)C(O)C(C)O3)cc(C3CC(N(C)C)C(O)C(C)O3)c1C2=O (stereo not drawn)	0.000557 µM (active)	0.0025 µM (active)	0.000531 µM (active)	0.00014 µM (active)		4.4e-05 µM (active)	4.68e-05 µM (active)	0.00011 µM (active)	2.49e-05 µM (active)	0.000215 µM (active)	0.000271 µM (active)		0.000129 µM (active)	9.53e-05 µM (active)	6.17e-05 µM (active)	2.5e-05 µM (active)	0.0025 µM (active)	0.0025 µM (active)	0.000118 µM (active)	0.000197 µM (active)
O=C1CC2[C@@H](N3CCCC3)CCC(N1Cc1ccccc1)C2(O)O (stereo partly drawn)	> 100 µM (inactive)	> 100 µM (inactive)	> 100 µM (inactive)	> 100 µM (inactive)	> 100 µM (inactive)	> 100 µM (inactive)	> 100 µM (inactive)	> 100 µM (inactive)	> 100 µM (inactive)	> 100 µM (inactive)		> 100 µM (inactive)	> 100 µM (inactive)	> 100 µM (inactive)	> 100 µM (inactive)	> 100 µM (inactive)	> 100 µM (inactive)	> 100 µM (inactive)	> 100 µM (inactive)	> 100 µM (inactive)
O=C(O)C1SCCS1	> 100 µM (inactive)	> 100 µM (inactive)		> 100 µM (inactive)		> 100 µM (inactive)	> 100 µM (inactive)	> 100 µM (inactive)	> 100 µM (inactive)	> 100 µM (inactive)	> 100 µM (inactive)	> 100 µM (inactive)	> 100 µM (inactive)	> 100 µM (inactive)	> 100 µM (inactive)	> 100 µM (inactive)	> 100 µM (inactive)	> 100 µM (inactive)	> 100 µM (inactive)	> 100 µM (inactive)
